From BindingDB's records for doi:10.7270/Q2251GJ9 (The Scripps Research Institute Molecular Screening Center, 2007) come the findings set out here.

The term EC50 denotes the concentration giving half of the maximal effect. Read a high EC50 as a need for much substance.

Chain of Sphingosine 1-phosphate receptor 1 (P21453 whole entry): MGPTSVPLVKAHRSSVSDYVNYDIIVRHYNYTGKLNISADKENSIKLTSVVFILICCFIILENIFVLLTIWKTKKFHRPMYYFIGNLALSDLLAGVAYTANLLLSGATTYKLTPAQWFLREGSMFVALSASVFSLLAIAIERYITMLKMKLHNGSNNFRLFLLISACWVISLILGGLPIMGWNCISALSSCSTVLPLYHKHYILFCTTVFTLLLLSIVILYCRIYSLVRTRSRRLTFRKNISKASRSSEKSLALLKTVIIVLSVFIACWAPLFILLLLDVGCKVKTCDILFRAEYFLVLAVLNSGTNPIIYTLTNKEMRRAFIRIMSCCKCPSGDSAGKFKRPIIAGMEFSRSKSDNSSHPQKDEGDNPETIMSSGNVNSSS

The first test has as its target Sphingosine 1-phosphate receptor 1 (Homo sapiens, UniProt P21453). Briefly: direct activation of human S1P1 – cell-based, agonist mode, 60K MLSMR set, dose response (AID 468).
Settings: not given
As for `CCc1cc(-c2n[nH]cc2-c2ccc3c(c2)OCO3)c(O)cc1O` [SMR000060132], the midpoint of the response, the EC50, lay at 6 µM.

`Cc1cc(C(=O)CSc2nnc(-c3cccnc3)n2-c2ccccc2F)c(C)n1C` [SMR000064090] returned an EC50 of 0.817 µM.

With `Clc1ccc(-n2nnnc2Sc2ncnc3sccc23)cc1` [SMR000066808], the EC50 came to 6.39 µM. Compared with the last compound, the EC50 is about 7.8-fold higher.

The compound `Cc1ccccc1OCCCCc1c(C)n[nH]c1C` [SMR000103095] registered an EC50 of 6.74 µM.

In turn, `COc1ccccc1OCCCCCc1c(C)n[nH]c1C` [SMR000103101] gave a concentration giving a half-maximal response (EC50) of 9.84 µM. The EC50 values of the last two compounds are within 1.5-fold of each other.

In turn, `Cc1cccc(OCCCCc2c(C)n[nH]c2C)c1C` [SMR000103133] showed an EC50 of 4.96 µM. Against the preceding compound, the EC50 is about 2-fold lower.

Compound `CCn1c(-c2cccc(Cl)c2)n[nH]c1=S` [SMR000104244] came in with an EC50 greater than 95 µM.

The compound `CC1(C)CC(=O)C(=CNc2ccc3[nH]ncc3c2)C(=O)C1` [SMR000111453] showed an EC50 of 5.07 µM.

As for `CN=C(NC#N)SCC(=O)c1ccc(Cl)cc1Cl` [[2-(2,4-dichlorophenyl)-2-oxidanylidene-ethyl] N-cyano-N'-methyl-carbamimidothioate], the EC50 is 4.55 µM.

Consider `CC(C)(C)OC(=O)N[C@@H](Cc1ccccc1)c1nnc(S(=O)(=O)Cc2cccc(F)c2)o1` [tert-butyl N-[(1S)-1-[5-[(3-fluorophenyl)methylsulfonyl]-1,3,4-oxadiazol-2-yl]-2-phenylethyl]carbamate], for which the EC50 stood at 8.51 µM.

The test is the same for the next values; noted with them: inactive by the depositor's call.
`C=CCOC(=O)c1[nH]c2c(c1C)C(=O)CC(c1cc(OC)c(OC)c(OC)c1)C2` (configuration not stated) [SMR000093465]: a half-maximal effect (EC50) was put at 10.7 µM.

For `Cc1cccc(OCCCCc2c(C)n[nH]c2C)c1` [SMR000103102], the EC50 worked out at 11.5 µM.
